The values that follow come from patent US9205077B2, “2-alkoxy-substituted dicyanopyridines and their use” (Bayer Intellectual Property GmbH, priority 2008, dated 2015).

Assay type in all cases: cell-based
In one experiment the target is T1, adenosine A1 receptor (Homo sapiens, UniProt P30542).
T1 construct: expressed in transfected cells; host or cells: CHO (Chinese Hamster Ovary) permanent line, stably transfected
T1 sequence (P30542 1-326): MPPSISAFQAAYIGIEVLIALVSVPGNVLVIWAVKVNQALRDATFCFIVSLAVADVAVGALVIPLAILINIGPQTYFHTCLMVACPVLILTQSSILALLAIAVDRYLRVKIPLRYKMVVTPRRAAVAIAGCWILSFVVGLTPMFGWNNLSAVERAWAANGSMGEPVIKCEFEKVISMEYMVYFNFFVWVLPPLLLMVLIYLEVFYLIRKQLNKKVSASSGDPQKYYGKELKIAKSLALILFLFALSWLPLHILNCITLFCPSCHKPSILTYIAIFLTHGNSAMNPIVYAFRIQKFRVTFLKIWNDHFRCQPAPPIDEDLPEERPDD
The experiment is described as follows: Indirect determination of the adenosine agonism by way of gene expression (luciferase reporter), A1 cells. The settings on record: CHO cells stably transfected with A1 receptor cDNA; 1 μM forskolin; 50% inhibition of luciferase response. From the text: (§1) B-1. Indirect Determination of the Adenosine Agonism by Way of Gene Expression
(§2) Cells of the CHO (Chinese Hamster Ovary) permanent line are transfected stably with the cDNA for the adenosine receptor subtypes A1, A2a and A2b. The adenosine A1 receptors are coupled to the adenylate cyclase by way of Gi proteins, while the adenosine A2a and A2b receptors are coupled by way of Gs proteins. In correspondence with this, the formation of cAMP in the cell is inhibited or stimulated, respectively. After that, expression of the luciferase is modulated by way of a cAMP-dependent promoter. The luciferase test is optimized, with the aim of high sensitivity and reproducibility, low variance and good suitability for implementation on a robot system, by varying several test parameters, such as cell density, duration of the growth phase and the test incubation, forskolin concentration and medium composition. The following test protocol is used for pharmacologically characterizing cells and for the robot-assisted substance screening:
(§3) The stock cultures are grown, at 37° C. and under 5% CO2, in DMEM/F12 medium containing 10% FCS (fetal calf serum) and in each case split 1:10 after 2-3 days. Test cultures are seeded in 384-well plates with 2000 cells per well and grown at 37° C. for approx. 48 hours. The medium is then replaced with a physiological sodium chloride solution (130 mM sodium chloride, 5 mM potassium chloride, 2 mM calcium chloride, 20 mM HEPES, 1 mM magnesium chloride hexahydrate, 5 mM sodium bicarbonate, pH 7.4). The substances to be tested, which are dissolved in DMSO, are pipetted into the test cultures (maximum final concentration of DMSO in the test mixture: 0.5%) in a dilution series of from 5×10^−11 M to 3×10^−6 M (final concentration). 10 minutes later, forskolin is added to the A1 cells and all the cultures are subsequently incubated at 37° C. for four hours. After that, 35 μl of a solution which is composed of 50% lysis reagent (30 mM disodium hydrogenphosphate, 10% glycerol, 3% TritonX100, 25 mM TrisHCl, 2 mM dithiotreitol (DTT), pH 7.8) and 50% luciferase substrate solution (2.5 mM ATP, 0.5 mM luciferin, 0.1 mM coenzyme A, 10 mM tricine, 1.35 mM magnesium sulphate, 15 mM DTT, pH 7.8) are added to the test cultures, which are shaken for approx. 1 minute and the luciferase activity is measured using a camera system. The EC50 values are determined, i.e., the concentrations at which 50% of the luciferase response is inhibited in the case of the A1 cell, and, respectively, 50% of the maximum stimulation with the corresponding substance is achieved in the case of the A2b and A2a cells. […] Pharmacol., 357, 1-9 (1998)).

The target of another experiment is T2, adenosine A2b receptor (Homo sapiens, UniProt P29275).
T2 construct: expressed in transfected cells; host or cells: CHO (Chinese Hamster Ovary) permanent line, stably transfected
T2 sequence (P29275 1-332): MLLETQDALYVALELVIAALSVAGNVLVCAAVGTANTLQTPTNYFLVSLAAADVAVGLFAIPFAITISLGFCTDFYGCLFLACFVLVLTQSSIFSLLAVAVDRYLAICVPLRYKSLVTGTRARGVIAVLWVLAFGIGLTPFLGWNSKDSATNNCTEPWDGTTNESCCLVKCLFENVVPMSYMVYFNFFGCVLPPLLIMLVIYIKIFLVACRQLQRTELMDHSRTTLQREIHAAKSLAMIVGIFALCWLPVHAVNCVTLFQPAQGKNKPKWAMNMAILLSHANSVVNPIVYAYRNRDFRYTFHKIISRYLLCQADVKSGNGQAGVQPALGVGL
Kind of experiment: Indirect determination of the adenosine agonism by way of gene expression (luciferase reporter), A2b cells. The settings on record: CHO cells stably transfected with A2b receptor cDNA; 50% of maximum stimulation of luciferase.
Text: as §1, §2, §3
On the technique in general: In a reporter assay the amount or activity of a reporter protein is the signal.

The next experiment has as its target T3, adenosine A2a receptor (Homo sapiens, UniProt P29274).
T3 construct: expressed in transfected cells; host or cells: CHO (Chinese Hamster Ovary) permanent line, stably transfected
Kind of experiment: Indirect determination of the adenosine agonism by way of gene expression (luciferase reporter), A2a cells. The conditions noted are these: CHO cells stably transfected with A2a receptor cDNA; 50% of maximum stimulation of luciferase.
Text: as §1, §2, §3

T3 sequence (P29274 whole entry): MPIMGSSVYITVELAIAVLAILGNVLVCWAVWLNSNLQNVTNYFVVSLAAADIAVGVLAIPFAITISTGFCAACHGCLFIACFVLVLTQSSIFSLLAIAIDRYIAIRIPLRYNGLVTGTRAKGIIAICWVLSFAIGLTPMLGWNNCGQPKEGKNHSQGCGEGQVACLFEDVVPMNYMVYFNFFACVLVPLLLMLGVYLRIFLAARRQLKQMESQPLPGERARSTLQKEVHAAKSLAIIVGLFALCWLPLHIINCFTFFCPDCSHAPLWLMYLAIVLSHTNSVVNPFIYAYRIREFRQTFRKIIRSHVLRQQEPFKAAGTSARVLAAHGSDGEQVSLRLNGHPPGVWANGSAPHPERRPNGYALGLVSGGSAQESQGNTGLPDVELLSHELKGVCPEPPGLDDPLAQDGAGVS

As a reminder, the EC50 is the concentration needed to bring the measured effect to its halfway point. A lower EC50 goes with an effect from little substance. As to `CCCOc1nc(SCc2csc(-c3ccc(Cl)cc3)n2)c(C#N)c(-c2ccccc2)c1C#N` [Example 1, 2-({[2-(4-Chlorophenyl)-1,3-thiazol-4-yl]methyl}sulphanyl)-4-phenyl-6-propoxypyridine-3,5-dicarbonitrile], the EC50 at adenosine A1 receptor was 1.3 nM; on adenosine A2b receptor, over 3000 nM; at adenosine A2a receptor, over 3000 nM.

For `COc1nc(SCc2csc(-c3ccc(Cl)cc3)n2)c(C#N)c(-c2ccc(OCCO)cc2)c1C#N` [Example 8, 2-({[2-(4-Chlorophenyl)-1,3-thiazol-4-yl]methyl}sulphanyl)-4-[4-(2-hydroxyethoxy)phenyl]-6-methoxypyridine-3,5-dicarbonitrile], the values for the EC50 on adenosine A1 receptor, at adenosine A2b receptor and on adenosine A2a receptor were 0.3 nM, 105 nM and 1220 nM, respectively.

Turning to `CCOc1nc(SCc2coc(-c3ccc(Cl)cc3)n2)c(C#N)c(-c2ccc(OCCO)cc2)c1C#N` [Example 15, 2-({[2-(4-Chlorophenyl)-1,3-oxazol-4-yl]methyl}sulphanyl)-6-ethoxy-4-[4-(2-hydroxyethoxy)-phenyl]pyridine-3,5-dicarbonitrile], the concentration for a half-maximal effect (EC50) on adenosine A1 receptor was 4.8 nM; on adenosine A2b receptor it was over 3000 nM; on adenosine A2a receptor, over 3000 nM.

In the case of `COc1cccc(CSc2nc(OC)c(C#N)c(-c3ccc(OCCO)cc3)c2C#N)c1` [Example 11, 4-[4-(2-Hydroxyethoxy)phenyl]-2-methoxy-6-[(3-methoxybenzyl)sulphanyl]pyridine-3,5-dicarbonitrile], the 50% effective concentration (EC50) on adenosine A1 receptor was 0.8 nM; on adenosine A2b receptor it was over 3000 nM; on adenosine A2a receptor, 1110 nM.

Regarding `CCOc1nc(SCc2csc(-c3ccc(Cl)cc3)n2)c(C#N)c(-c2ccc(OCCO)cc2)c1C#N` [Example 16, 2-({[2-(4-Chlorophenyl)-1,3-thiazol-4-yl]methyl}sulphanyl)-6-ethoxy-4-[4-(2-hydroxyethoxy)-phenyl]pyridine-3,5-dicarbonitrile], the results for the EC50 on adenosine A1 receptor, at adenosine A2b receptor and at adenosine A2a receptor were 0.8 nM, over 3000 nM and 527 nM, respectively.

`N#Cc1c(OCCCO)nc(SCc2csc(-c3ccc(Cl)cc3)n2)c(C#N)c1-c1cncs1` [Example 6, 2-({[2-(4-Chlorophenyl)-1,3-thiazol-4-yl]methyl}sulphanyl)-6-(3-hydroxypropoxy)-4-(1,3-thiazol-5-yl)pyridine-3,5-dicarbonitrile]: the EC50 is 5.7 nM at adenosine A1 receptor, over 3000 nM at adenosine A2b receptor and over 3000 nM on adenosine A2a receptor.

Consider `COc1nc(SCc2cccnc2)c(C#N)c(-c2ccc(OCCO)cc2)c1C#N` [Example 12, 4-[4-(2-Hydroxyethoxy)phenyl]-2-methoxy-6-[(pyridin-3-ylmethyl)sulphanyl]pyridine-3,5-dicarbonitrile], for which the EC50 at adenosine A1 receptor was 1.2 nM; on adenosine A2b receptor, over 3000 nM; at adenosine A2a receptor it was 547 nM.

As for `N#Cc1c(OCCO)nc(SCc2csc(-c3ccc(Cl)cc3)n2)c(C#N)c1-c1ccc(OCCO)cc1` [Example 19], the results for the EC50 on adenosine A1 receptor, on adenosine A2b receptor and at adenosine A2a receptor were 0.5 nM, 177 nM and 685 nM, respectively.

Regarding `CNC(=O)c1cc(CSc2nc(OCCO)c(C#N)c(-c3ccccc3)c2C#N)ccn1` [Example 18, 4-({[3,5-Dicyano-6-(2-hydroxyethoxy)-4-phenylpyridin-2-yl]thio}methyl)-N-methylpyridine-2-carboxamide], the values for the EC50 at adenosine A1 receptor, at adenosine A2b receptor and at adenosine A2a receptor were 0.3 nM, over 3000 nM and 1740 nM, respectively.

Take `COc1nc(SCc2csc(-c3ccc(Cl)cc3)n2)c(C#N)c(-c2ccc(OC[C@@H](O)CO)cc2)c1C#N` [Example 22, 2-({[2-(4-Chlorophenyl)-1,3-thiazol-4-yl]methyl}sulphanyl)-4-(4-{[(2S)-2,3-dihydroxypropyl]-oxy}phenyl)-6-methoxypyridine-3,5-dicarbonitrile]: the EC50 was 2.1 nM at adenosine A1 receptor, 142 nM on adenosine A2b receptor and 1260 nM on adenosine A2a receptor.

On to `COc1nc(SCc2c[nH]cn2)c(C#N)c(-c2ccc(OCCO)cc2)c1C#N` [Example 21, Formic acid 4-[4-(2-hydroxyethoxy)phenyl]-2-[(1H-imidazol-4-ylmethyl)sulphanyl]-6-methoxypyridine-3,5-dicarbonitrile (1:1)], for which the figures for the EC50 on adenosine A1 receptor, on adenosine A2b receptor and on adenosine A2a receptor were 73.2 nM, 28.6 nM and over 3000 nM, respectively.

With `N#Cc1c(OCCCO)nc(SCc2csc(-c3ccc(Cl)cc3)n2)c(C#N)c1-c1ccc(OCCO)cc1` [Example 3, 2-({[2-(4-Chlorophenyl)-1,3-thiazol-4-yl]methyl}sulphanyl)-4-[4-(2-hydroxyethoxy)phenyl]-6-(3-hydroxypropoxy)pyridine-3,5-dicarbonitrile], the concentration giving a half-maximal response (EC50) at adenosine A1 receptor was determined as 0.6 nM; at adenosine A2b receptor, 263 nM; on adenosine A2a receptor, 689 nM.

Turning to `N#Cc1c(OCCCO)nc(SCc2csc(-c3ccc(Cl)cc3)n2)c(C#N)c1-c1ccccc1` [Example 2, 2-({[2-(4-Chlorophenyl)-1,3-thiazol-4-yl]methyl}sulphanyl)-6-(3-hydroxypropoxy)-4-phenylpyridine-3,5-dicarbonitrile], the EC50 at adenosine A1 receptor was 0.7 nM; on adenosine A2b receptor, 534 nM; at adenosine A2a receptor it was over 3000 nM.
